Experimental data reported in patent US20110044943A1, “Anti-Viral Compounds, Compositions, And Methods Of Use” (priority 2007, published 2011).

Assay: Replicon Assay (luciferase, ET cell line)
Type: cell-based, HCV
Details: Hepatitis C virus; tested at 10 μM; inhibition of replication relative to no compound control; luciferase 48-72 hours
Text: A cell line, ET (Huh-lucubineo-ET) was used for screening of compounds, or pharmaceutically acceptable salts or solvates, described herein for inhibition of HCV RNA dependent RNA polymerase. The ET cell line was stably transfected with RNA transcripts harboring a I389luc-ubi-neo/NS3-3′/ET; replicon with firefly luciferase-ubiquitin-neomycin phosphotransferase fusion protein and EMCV-IRES driven NS3-5B polyprotein containing the cell culture adaptive mutations (E1202G; T1280I; K1846T) (Krieger at al, 2001 and unpublished). The ET cells were grown in DMEM, supplemented with 10% fetal calf serum, 2 mM Glutamine, Penicillin (100 IU/mL)/Streptomycin (100 μg/mL), 1× nonessential amino acids, and 250 μg/mL G418 (“Geneticin”). They were all available through Life Technologies (Bethesda, Md.). The cells were plated at 0.5-1.0×10^4 cells/well in the 96 well plates and incubated for 24 hrs before adding the test compounds. […] Luciferase activity was measured 48-72 hours later by adding a lysis buffer and the substrate (Catalog number Glo-lysis buffer E2661 and Bright-Glo luciferase system E2620 Promega, Madison, Wis.). […] Under the same condition, cytotoxicity of the compounds was determined using cell proliferation reagent, WST-1 (Roche, Germany). […] EC50 and similarly TC50 values were calculated by fitting % inhibition at each concentration to the following equation: […]

Compound `Fc1cccc(-c2nc3cnn(Cc4cc(-c5ccc(Oc6ccccn6)cc5)no4)cc-3n2)c1F` [Compound 217] has an inhibition at 10 µM of 85.3%.
